Assay results published in PubChem BioAssay AID248 (DTP/NCI, 2004).
“And” between values parts separate entries of the source, which are not always exact repeats. Identical values can stand only once. Inconclusive results and toxic doses are left out.

System: L1210 leukemia ip in BDF1 mice, survival T/C
Test: NCI In Vivo Anticancer Drug Screen. Data for tumor model L1210 Leukemia (intraperitoneal) in B6D2F1 (BDF1) mice
Conditions: endpoint: mean survival time, higher = longer survival
Procedure, shortened: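 In this screen, tumor-bearing mice given compound are compared to those given vehicle, and their survival values are reported as a treated-to-control quotient.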

[1] = dose: 50.0 mg/kg/injection, schedule: Q01DX009 (ip), vehicle: saline with Tween-80
[2] = dose: 50.0 mg/kg/injection, schedule: Q01DX009 (ip), vehicle: Klucel (hydroxypropylcellulose) (HPC)
[3] = dose: 12.5 mg/kg/injection, schedule: Q01DX009 (ip), vehicle: saline
[4] = dose: 25.0 mg/kg/injection, schedule: Q01DX009 (ip), vehicle: saline
[5] = dose: 100.0 mg/kg/injection, schedule: Q01DX009 (ip), vehicle: saline
[6] = dose: 200.0 mg/kg/injection, schedule: Q01DX009 (ip), vehicle: saline
[7] = dose: 100.0 mg/kg/injection, schedule: Q04DX002 (ip), vehicle: Klucel (hydroxypropylcellulose) (HPC)
[8] = dose: 100.0 mg/kg/injection, schedule: Q01DX001 (ip), vehicle: carboxymethylcellulose (CMC)
[9] = dose: 200.0 mg/kg/injection, schedule: Q01DX001 (ip), vehicle: carboxymethylcellulose (CMC)
[10] = dose: 400.0 mg/kg/injection, schedule: Q01DX001 (ip), vehicle: carboxymethylcellulose (CMC)
[11] = dose: 100.0 mg/kg/injection, schedule: Q01DX009 (ip), vehicle: saline with Tween-80
[12] = dose: 100.0 mg/kg/injection, schedule: Q04DX003 (ip), vehicle: saline with Tween-80
[13] = dose: 200.0 mg/kg/injection, schedule: Q01DX009 (ip), vehicle: saline with Tween-80
[14] = dose: 200.0 mg/kg/injection, schedule: Q04DX003 (ip), vehicle: saline with Tween-80
[15] = dose: 400.0 mg/kg/injection, schedule: Q01DX009 (ip), vehicle: saline with Tween-80
[16] = dose: 400.0 mg/kg/injection, schedule: Q04DX003 (ip), vehicle: saline with Tween-80
[17] = dose: 12.5 mg/kg/injection, schedule: Q01DX009 (ip), vehicle: Klucel (hydroxypropylcellulose) (HPC)
[18] = dose: 25.0 mg/kg/injection, schedule: Q01DX009 (ip), vehicle: Klucel (hydroxypropylcellulose) (HPC)
[19] = dose: 100.0 mg/kg/injection, schedule: Q01DX001 (ip), vehicle: saline
[20] = dose: 200.0 mg/kg/injection, schedule: Q01DX001 (ip), vehicle: saline
[21] = dose: 400.0 mg/kg/injection, schedule: Q01DX001 (ip), vehicle: saline
[22] = dose: 50.0 mg/kg/injection, schedule: Q01DX001 (ip), vehicle: saline

`CCOC(=O)c1ccc(N(CC(O)CN)S(=O)(=O)c2ccc(C)cc2)cc1` (stereo not drawn) was tested, and the T/C (dose: 25.0 mg/kg/injection, schedule: Q01DX009 (ip), vehicle: saline with Tween-80) was 100 % of control and the T/C [1] was 95 % of control.
With `CN(C)/N=C1/CC(=O)CC(C)(C)C1` the T/C [2] was 110 % of control, the T/C (dose: 100.0 mg/kg/injection, schedule: Q01DX009 (ip), vehicle: Klucel (hydroxypropylcellulose) (HPC)) was 100 % of control and the T/C (dose: 200.0 mg/kg/injection, schedule: Q01DX009 (ip), vehicle: Klucel (hydroxypropylcellulose) (HPC)) was 100 % of control.
For `C1OC1C1CO1` (stereo not drawn), the T/C (dose: 6.25 mg/kg/injection, schedule: Q01DX009 (ip), vehicle: saline) was 92 % of control, the T/C (dose: 10.0 mg/kg/injection, schedule: Q01DX001 (ip), vehicle: saline) was 106 % of control and the T/C [3] was 104 % of control. The T/C (dose: 12.5 mg/kg/injection, schedule: Q04DX003 (ip), vehicle: saline) was 110 % of control, the T/C (dose: 20.0 mg/kg/injection, schedule: Q01DX001 (ip), vehicle: saline) was 103 % of control and the T/C [4] was 114 % of control. For the same molecule, the T/C (dose: 25.0 mg/kg/injection, schedule: Q04DX003 (ip), vehicle: saline) was 119 % of control, the T/C (dose: 40.0 mg/kg/injection, schedule: Q01DX001 (ip), vehicle: saline) was 114 % of control and the T/C (dose: 44.0 mg/kg/injection, schedule: Q01DX001 (ip), vehicle: saline) was 105 % of control. For the same molecule, the T/C (dose: 50.0 mg/kg/injection, schedule: Q04DX003 (ip), vehicle: saline) was 105 % of control.
With `CCOC(=O)/C(C#N)=C1/CCCN1` the T/C [5] was 97 % of control, the T/C [6] was 100 % of control and the T/C (dose: 400.0 mg/kg/injection, schedule: Q01DX009 (ip), vehicle: saline) was 108 % of control.
For `O=C(C[n+]1ccc2ccccc2c1)c1cccs1`, the T/C (dose: 25.0 mg/kg/injection, schedule: Q04DX002 (ip), vehicle: Klucel (hydroxypropylcellulose) (HPC)) was 90 % of control and 91 % of control, the T/C (dose: 50.0 mg/kg/injection, schedule: Q04DX002 (ip), vehicle: Klucel (hydroxypropylcellulose) (HPC)) was 95 % of control and 90 % of control and the T/C [7] was 98 % of control.
`NC(=O)Nc1ccc2c(c1)Cc1cc([N+](=O)[O-])ccc1-2` was tested, and the T/C [8] was 100 % of control, the T/C [9] was 105 % of control and the T/C [10] was 91 % of control.
For `O=C(CCCN1CCN(c2ccccc2)CC1)c1ccc(F)cc1`, the T/C [3] was 122 % of control, the T/C [4] was 106 % of control and the T/C (dose: 50.0 mg/kg/injection, schedule: Q01DX009 (ip), vehicle: saline) was 114 % of control. For the same molecule, the T/C [5] was 111 % of control and the T/C [6] was 103 % of control.
`CC(C)(C1c2ccccc2C(=NO)c2ccccc21)[N+](=O)[O-]` (stereo not drawn) was tested, and the T/C [11] was 98 % of control, the T/C [12] was 95 % of control and the T/C [13] was 94 % of control. The T/C [14] was 95 % of control, the T/C [15] was 94 % of control and the T/C [16] was 98 % of control.
With `CCN(CC)C(=S)[S][Sb]([S]C(=S)N(CC)CC)[c]1ccccc1` the T/C (dose: 100.0 mg/kg/injection, schedule: Q01DX001 (ip), vehicle: other) was 112 % of control and the T/C (dose: 200.0 mg/kg/injection, schedule: Q01DX001 (ip), vehicle: other) was 89 % of control.
`O=C(N/N=C/c1ccc(O)cc1O)C(O)(c1ccccc1)c1ccccc1` was tested, and the T/C [8] was 106 % of control, the T/C [9] was 106 % of control and the T/C [10] was 108 % of control.
`CN(C1=CC(=O)C(N(C)C2CCCCC2)=CC1=O)C1CCCCC1` was tested, and the T/C (dose: 7.5 mg/kg/injection, schedule: Q01DX009 (ip), vehicle: saline) was 90 % of control and the T/C (dose: 15.0 mg/kg/injection, schedule: Q01DX009 (ip), vehicle: saline) was 93 % of control.
With `CN(N=O)C(=O)NCCCNC(=O)N(C)N=O` the T/C (dose: 6.25 mg/kg/injection, schedule: Q01DX Z (ip), vehicle: carboxymethylcellulose (CMC)) was 118 % of control, the T/C (dose: 12.5 mg/kg/injection, schedule: Q01DX Z (ip), vehicle: carboxymethylcellulose (CMC)) was 101 % of control and the T/C (dose: 25.0 mg/kg/injection, schedule: Q01DX Z (ip), vehicle: carboxymethylcellulose (CMC)) was 112 % of control. For the same molecule, the T/C (dose: 100.0 mg/kg/injection, schedule: Q01DX Z (ip), vehicle: carboxymethylcellulose (CMC)) was 200 % of control, the T/C (dose: 150.0 mg/kg/injection, schedule: Q01DX001 (ip), vehicle: carboxymethylcellulose (CMC)) was 120 % of control and the T/C (dose: 150.0 mg/kg/injection, schedule: Q01DX001 (ip), vehicle: saline) was 102 % of control. For the same molecule, the T/C (dose: 250.0 mg/kg/injection, schedule: Q01DX Z (ip), vehicle: carboxymethylcellulose (CMC)) was 121 % of control, the T/C (dose: 300.0 mg/kg/injection, schedule: Q01DX001 (ip), vehicle: carboxymethylcellulose (CMC)) was 123 % of control and the T/C (dose: 300.0 mg/kg/injection, schedule: Q01DX001 (ip), vehicle: saline) was 112 % of control. For the same molecule, the T/C (dose: 300.0 mg/kg/injection, schedule: Q01DX Z (ip), vehicle: carboxymethylcellulose (CMC)) was 90 % of control and the T/C (dose: 600.0 mg/kg/injection, schedule: Q01DX001 (ip), vehicle: saline) was 109 % of control.
In the case of `[Cl][Rh][Cl].c1cn[nH]c1.c1cn[nH]c1.c1cn[nH]c1.c1cn[nH]c1`, the T/C [17] is reported as 98 % of control, the T/C (dose: 12.5 mg/kg/injection, schedule: Q04DX003 (ip), vehicle: Klucel (hydroxypropylcellulose) (HPC)) is reported as 90 % of control and the T/C [18] is reported as 89 % of control. The T/C (dose: 25.0 mg/kg/injection, schedule: Q04DX003 (ip), vehicle: Klucel (hydroxypropylcellulose) (HPC)) was 95 % of control and the T/C (dose: 50.0 mg/kg/injection, schedule: Q04DX003 (ip), vehicle: Klucel (hydroxypropylcellulose) (HPC)) was 102 % of control.
With `Cc1ccc(Nc2ncnc3nc[nH]c23)cc1CN(CCO)CCO` the T/C [19] was 101 % of control, the T/C [20] was 101 % of control and the T/C [21] was 95 % of control.
In the case of `C=CCCCCCCCCC(=O)NC[n+]1cccc(O)c1`, the T/C [12] is reported as 87 % of control.
In the case of `CC(Cl)(CCl)C(=O)O` (stereo not drawn), the T/C [22] is reported as 95 % of control and the T/C [19] is reported as 103 % of control.
With `CC(=O)OC1CCC2(C)C(CCC3C4CC(N5CC5)C(C(C)=O)C4(C)CC(=O)C32)C1` (stereo not drawn) the T/C (dose: 100.0 mg/kg/injection, schedule: Q01DX001 (sc), vehicle: steriod suspending solution) was 99 % of control, the T/C (dose: 200.0 mg/kg/injection, schedule: Q01DX001 (sc), vehicle: steriod suspending solution) was 100 % of control and the T/C (dose: 400.0 mg/kg/injection, schedule: Q01DX001 (sc), vehicle: steriod suspending solution) was 94 % of control.
`OCC1OCOC2COCOC12` (stereo not drawn) was tested, and the T/C [11] was 94 % of control, the T/C [13] was 98 % of control and the T/C [15] was 104 % of control.
With `NC(=O)c1cc(C(=O)O)ccc1N(N)O` the T/C [12] was 101 % of control, the T/C [14] was 101 % of control and the T/C [16] was 90 % of control.
For `COc1ccccc1CN1CCCOP1(=O)Nc1ccccc1C` (stereo not drawn), the T/C (dose: 50.0 mg/kg/injection, schedule: Q01DX001 (ip), vehicle: carboxymethylcellulose (CMC)) was 109 % of control, the T/C [8] was 93 % of control and the T/C [9] was 96 % of control. The T/C [10] was 91 % of control.
With `O=C1C=C2CCCCC2C1` (stereo not drawn) the T/C [1] was 100 % of control and the T/C [11] was 88 % of control.
For `CC(C)=NNC(=O)c1ccc(Cl)cc1`, the T/C [11] was 95 % of control, the T/C [13] was 106 % of control and the T/C [15] was 116 % of control.
In the case of `Cc1ccc(-n2ccnc2C)c(N=Cc2ccc(N(CCCl)CCCl)cc2C)c1`, the T/C [7] is reported as 98 % of control, the T/C (dose: 200.0 mg/kg/injection, schedule: Q04DX002 (ip), vehicle: Klucel (hydroxypropylcellulose) (HPC)) is reported as 102 % of control and the T/C (dose: 400.0 mg/kg/injection, schedule: Q04DX002 (ip), vehicle: Klucel (hydroxypropylcellulose) (HPC)) is reported as 106 % of control.
`O=C(CCCC(=O)N/N=C/c1cc([N+](=O)[O-])ccc1O)N/N=C\c1cc([N+](=O)[O-])ccc1O` was tested, and the T/C [22] was 96 % of control, the T/C [19] was 104 % of control and the T/C [20] was 102 % of control. For the same molecule, the T/C [21] was 98 % of control.
In the case of `NC(=O)NN=C1CCCCC1`, the T/C [17] is reported as 97 % of control, the T/C [18] is reported as 97 % of control and the T/C [2] is reported as 102 % of control. The T/C (dose: 70.0 mg/kg/injection, schedule: Q01DX009 (ip), vehicle: Klucel (hydroxypropylcellulose) (HPC)) was 87 % of control.
